Series [1] relates to Mus musculus. The series can be described thus: Anti-hyperuricemic activity against hypoxanthine/potassium oxonate-induced Kunming mouse model assessed as decrease in serum uric acid ratio at 2 mg/kg, sc measured after 4 hrs. The class given is functional. Set-up: scale not given: the % may be the effect or the level left.
The nature of series [2]: Acute toxicity in Kunming female mouse assessed as lethargy at 1000 mg/kg, IG. The conditions noted are these: in vivo, po. In kind it is organism-based.
Series [3] can be described thus: Acute toxicity in Kunming female mouse assessed as anorexia at 1000 mg/kg, IG. In kind it is organism-based. The conditions noted are these: in vivo, po.
A short description of series [4]: Acute toxicity in Kunming male mouse assessed as survival rate at 1000 mg/kg, IG. In kind it is organism-based. Conditions: in vivo, po, read-out: Activity.
The nature of series [5]: Acute toxicity in Kunming female mouse assessed as effect on body weight changes at 1000 mg/kg, IG measured for 7 days. In kind it is organism-based. Conditions: in vivo, po, 168 h, time 7 day.
For series [6], the system named is Mus musculus. The series can be described thus: Anti-hyperuricemic activity against hypoxanthine/potassium oxonate-induced Kunming mouse model assessed as reduction in serum uric acid level at 2 mg/kg, sc measured after 4 hrs (reference value: 1010.00 +/- 51.16 uM). The class given is functional.
A short description of series [7]: Acute toxicity in Kunming female mouse assessed as ruffled fur at 1000 mg/kg, IG. The class given is organism-based. Conditions: in vivo, po.
Series [8] can be described thus: Acute toxicity in Kunming female mouse assessed as clonic convulsion at 1000 mg/kg, IG. The class given is organism-based. Conditions: in vivo, po.
Series [9] deals with T1, Solute carrier family 2, facilitated glucose transporter member 9 (Homo sapiens, UniProt Q9NRM0).
T1 sequence (Q9NRM0 whole entry): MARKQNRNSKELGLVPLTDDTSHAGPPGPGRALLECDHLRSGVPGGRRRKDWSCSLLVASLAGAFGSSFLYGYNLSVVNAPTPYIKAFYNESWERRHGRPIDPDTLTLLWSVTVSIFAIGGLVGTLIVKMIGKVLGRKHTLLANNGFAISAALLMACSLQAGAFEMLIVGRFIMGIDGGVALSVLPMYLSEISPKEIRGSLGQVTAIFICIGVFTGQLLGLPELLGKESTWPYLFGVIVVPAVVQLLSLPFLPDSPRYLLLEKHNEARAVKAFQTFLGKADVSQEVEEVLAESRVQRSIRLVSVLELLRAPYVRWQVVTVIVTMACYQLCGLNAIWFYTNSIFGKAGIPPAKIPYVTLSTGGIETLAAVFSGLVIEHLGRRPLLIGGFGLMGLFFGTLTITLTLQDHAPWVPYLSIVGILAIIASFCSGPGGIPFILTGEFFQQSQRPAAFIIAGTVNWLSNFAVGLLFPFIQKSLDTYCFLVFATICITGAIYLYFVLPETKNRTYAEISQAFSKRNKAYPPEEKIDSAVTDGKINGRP
The series can be described thus: Inhibition of GLUT9 (unknown origin) transfected in HEK293 cells assessed as inhibition of uric acid-induced current by whole cell patch clamp analysis. In kind it is cell-based. On the technique in general: In patch-clamp work, channel activity is measured electrically.

Series [10] in a line: Acute toxicity in Kunming female mouse assessed as survival rate at 1000 mg/kg, IG. The class given is organism-based. Conditions: in vivo, po, read-out: Activity.
Series [11] concerns the target T2, Solute carrier family 22 member 12 (Homo sapiens, UniProt Q96S37).
T2 sequence (Q96S37 whole entry): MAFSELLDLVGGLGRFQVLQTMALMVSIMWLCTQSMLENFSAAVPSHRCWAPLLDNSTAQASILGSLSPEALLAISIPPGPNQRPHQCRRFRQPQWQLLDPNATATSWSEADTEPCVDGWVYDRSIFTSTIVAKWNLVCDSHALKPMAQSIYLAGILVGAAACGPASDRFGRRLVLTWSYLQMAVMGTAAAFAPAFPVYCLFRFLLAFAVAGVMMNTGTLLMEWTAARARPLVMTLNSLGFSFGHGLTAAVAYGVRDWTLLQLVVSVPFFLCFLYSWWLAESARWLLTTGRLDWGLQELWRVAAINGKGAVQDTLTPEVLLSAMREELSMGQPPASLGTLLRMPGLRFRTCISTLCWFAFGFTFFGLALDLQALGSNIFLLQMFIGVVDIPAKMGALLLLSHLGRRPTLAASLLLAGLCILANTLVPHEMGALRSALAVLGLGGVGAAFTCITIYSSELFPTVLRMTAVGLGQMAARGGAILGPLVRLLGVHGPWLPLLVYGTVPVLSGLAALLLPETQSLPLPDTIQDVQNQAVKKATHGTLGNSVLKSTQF
The series is described as follows: Inhibition of human URAT1 mediated 14C-uric acid uptake expressed in HEK293 cells using 14C-uric acid as substrate incubated for 30 mins by liquid scintillation counting analysis. The class given is cell-based.

Series [12] concerns the target T3, Solute carrier family 2, facilitated glucose transporter member 9 (Homo sapiens) (UniProt Q9NRM0).
T3 sequence (whole entry): T1 sequence (Q9NRM0 whole entry)
The series can be described thus: Inhibition of GLUT9 (unknown origin) transfected in HEK293 cells assessed as inhibition of uric acid-induced current at 100 uM by whole cell patch clamp analysis. In kind it is cell-based.

Activity calls are given as the source filed them. No cut-off for these calls is given here.

One may read the IC50 as the midpoint of a concentration-inhibition curve.

For the molecule `O=C(CSc1nc2sccc2c(=O)n1-c1ccc(C2CC2)c2ccccc12)NS(=O)(=O)c1ccc(Br)cc1`, the Activity in series [1] was 73.29%; in series [2], “Non-Toxic”; in series [3], “Non-Toxic”; in series [5] it was “Non-Toxic”; in series [6] it was 336.67 µM; in series [7], “Non-Toxic”. Also, the Activity entry in series [8] was “Non-Toxic”. Moreover, the survival in [4] and in series [10] was 100% throughout. Besides, the figures for the IC50 in series [9] and in [11] were 56 µM and 7.56 µM, respectively.
The molecule `O=C(CSc1nc2sccc2c(=O)n1-c1ccc(C2CC2)c2ccccc12)NS(=O)(=O)c1ccc(O)cc1` gave an IC50 in series [11] of 20.3 µM.
Regarding `O=C(O)CSc1ccncc1C(=O)N1CCOc2ccccc21`, the Activity in series [1] turned out to be 14.4%; in series [6], 802.33 µM.
In series [11], `O=C(CSc1nc2sccc2c(=O)n1-c1ccc(C2CC2)c2ccccc12)NS(=O)(=O)c1ccc([N+](=O)[O-])cc1` gave an IC50 of 9.72 µM.
In series [11], `O=C(CSc1nc2sccc2c(=O)n1-c1ccc(C2CC2)c2ccccc12)NS(=O)(=O)c1ccccc1[N+](=O)[O-]` gave an IC50 of 9.79 µM.
Molecule `CC(C)S(=O)(=O)NC(=O)CSc1nc2sccc2c(=O)n1-c1ccc(C2CC2)c2ccccc12` returned an IC50 in [11] of 9.25 µM.
In turn, `O=C(CSc1nc2sccc2c(=O)n1-c1ccc(C2CC2)c2ccccc12)NS(=O)(=O)c1ccc(C(F)(F)F)cc1` showed an IC50 in series [11] of 16.2 µM.
Still for that read-out and setting: the figure for `O=C(CSc1nc2sccc2c(=O)n1-c1ccc(C2CC2)c2ccccc12)NS(=O)(=O)c1ccc(F)cc1F` is 9.92 µM.
Molecule `O=C(CSc1nc2sccc2c(=O)n1-c1ccc(C2CC2)c2ccccc12)NS(=O)(=O)c1ccc(Cl)cc1` had an IC50 in series [11] of 11.9 µM.
For `O=C(O)CSc1nc2sccc2c(=O)n1-c1ccc(C2CC2)c2ccccc12`, 3.27 µM corresponded to half-maximal inhibition in series [11] (hek293) (IC50).
The molecule `O=C(CSc1nc2sccc2c(=O)n1-c1ccc(C2CC2)c2ccccc12)NS(=O)(=O)c1ccccc1` yielded an IC50 in series [11] of 11.4 µM.
In series [11], `CC(C)(C)c1ccc(S(=O)(=O)NC(=O)CSc2nc3sccc3c(=O)n2-c2ccc(C3CC3)c3ccccc23)cc1` came in with an IC50 of 13.5 µM.
Turning to `CC(Sc1ccncc1C(=O)N1CCc2ccccc2C1)C(=O)O` (configuration not stated), the figures for the Activity in [1] and in series [6] were 52.9% and 479.67 µM, respectively.
`O=C(CSc1nc2sccc2c(=O)n1-c1ccc(C2CC2)c2ccccc12)NS(=O)(=O)c1ccc(Cl)s1` showed an IC50 in series [11] of 9.7 µM.
Consider `CC(Sc1ccncc1C(=O)N1CCOc2ccccc21)C(=O)O` (configuration not stated), for which the Activity in [1] stood at 40.93%; in series [6], 580 µM.
With `O=C(CSc1nc2sccc2c(=O)n1-c1ccc(C2CC2)c2ccccc12)NS(=O)(=O)c1ccc(F)cc1`, the IC50 in series [11] was found to be 11.4 µM.
Regarding `O=C(O)CCSc1ccncc1C(=O)N1CCOc2ccccc21`, the Activity in [1] worked out at 24.3%; in series [6] it was 719.33 µM.
In turn, `O=C(CSc1nc2sccc2c(=O)n1-c1ccc(C2CC2)c2ccccc12)NS(=O)(=O)c1cccc([N+](=O)[O-])c1` came in with an IC50 in series [11] of 11.5 µM.
On the same count and under the same terms, the figure for `CC(C)(C)S(=O)(=O)NC(=O)CSc1nc2sccc2c(=O)n1-c1ccc(C2CC2)c2ccccc12` is 11.1 µM.
Consider `O=C(O)CSc1nnc(Br)n1-c1ccc(C2CC2)c2ccccc12`, for which the values for the Activity in series [1] and in series [6] were 26% and 763 µM, respectively. The values for the survival in [4] and in series [10] were 40% and 20%, respectively. The inhibition entry in series [12] was “inactive”.
For `O=C(CSc1nc2sccc2c(=O)n1-c1ccc(C2CC2)c2ccccc12)NS(=O)(=O)C1CC1`, half-maximal inhibition in series [11] (IC50) required 11.6 µM.
`CS(=O)(=O)NC(=O)CSc1nc2sccc2c(=O)n1-c1ccc(C2CC2)c2ccccc12`: the Activity came out at 51.85% in series [1] and 533.67 µM in [6]. This molecule came in with an IC50 in series [11] of 7.31 µM.
As to `O=C(c1cnccc1SC1(C(=O)O)CCC1)N1CCc2ccccc2C1`, the Activity was determined as 36% in [1] and 621.33 µM in series [6].
For the molecule `O=C(CSc1nc2sccc2c(=O)n1-c1ccc(C2CC2)c2ccccc12)NS(=O)(=O)c1cc(F)cc(F)c1`, the Activity in [1] was determined as 54.17%; in series [6], 512.33 µM. Besides, the IC50 in series [11] was found to be 7.68 µM.
The matching figures for `CCS(=O)(=O)NC(=O)CSc1nc2sccc2c(=O)n1-c1ccc(C2CC2)c2ccccc12`: 36.39%, 675.67 µM and 7.9 µM.
Turning to `O=C(O)CSc1ccncc1C(=O)N1CCc2ccccc2C1`, the Activity in [1] was found to be 28.73%; in series [6], 682.25 µM.

The values are drawn from ChEMBL document CHEMBL5247582 (Eur J Med Chem, 2022).
